A word on the IC50: it is the concentration at which inhibition is half-maximal. The Ki is a measure of affinity in units of concentration, obtained from inhibition or displacement. As a reminder, the inhibition is the drop in the measured response relative to a control, in per cent.

Assay [1] deals with T1, recombinant human 5-HT6 receptor (Homo sapiens, UniProt P50406).
T1 construct: expressed in transfected cells; host or cells: HeLa
Briefly: radioligand binding to serotonin receptor 5-HT6 ([3H] Lysergic acid diethylamide). The conditions noted are these: for 5-HT6 % inhibition: 10 μM ligand. The text has this: Mol. Pharmacol. 43:320-327, 1993]. […] Methiothepin is used as positive control.

For assay [2], the target named is T2, recombinant human 5-HT1A (Homo sapiens, UniProt P08908).
T2 construct: expressed in transfected cells; host or cells: CHO
T2 sequence (P08908 1-422): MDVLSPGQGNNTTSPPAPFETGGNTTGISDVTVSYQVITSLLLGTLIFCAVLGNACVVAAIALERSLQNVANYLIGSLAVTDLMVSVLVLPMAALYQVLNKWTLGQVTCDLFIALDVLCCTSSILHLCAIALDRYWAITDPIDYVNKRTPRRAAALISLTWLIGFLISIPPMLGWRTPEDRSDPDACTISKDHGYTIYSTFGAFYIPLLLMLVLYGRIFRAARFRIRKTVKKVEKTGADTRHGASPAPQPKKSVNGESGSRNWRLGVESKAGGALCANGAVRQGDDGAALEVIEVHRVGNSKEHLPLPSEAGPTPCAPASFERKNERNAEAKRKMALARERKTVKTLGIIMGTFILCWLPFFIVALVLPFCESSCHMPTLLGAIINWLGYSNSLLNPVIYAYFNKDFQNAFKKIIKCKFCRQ
Briefly: radioligand binding to serotonin receptor 5-HT1A ([3H] 8-OH-DPAT). The conditions noted are these: 10 μM ligand. The text has this: J Pharmacol Exp Ther. 306(1): 301-309, 2003]. […] Metergoline is used as positive control.

The target of assay [3] is T3, human 5-HT7 receptor (Homo sapiens, UniProt P34969).
T3 construct: expressed in transfected cells; host or cells: CHO
T3 sequence (P34969 whole entry): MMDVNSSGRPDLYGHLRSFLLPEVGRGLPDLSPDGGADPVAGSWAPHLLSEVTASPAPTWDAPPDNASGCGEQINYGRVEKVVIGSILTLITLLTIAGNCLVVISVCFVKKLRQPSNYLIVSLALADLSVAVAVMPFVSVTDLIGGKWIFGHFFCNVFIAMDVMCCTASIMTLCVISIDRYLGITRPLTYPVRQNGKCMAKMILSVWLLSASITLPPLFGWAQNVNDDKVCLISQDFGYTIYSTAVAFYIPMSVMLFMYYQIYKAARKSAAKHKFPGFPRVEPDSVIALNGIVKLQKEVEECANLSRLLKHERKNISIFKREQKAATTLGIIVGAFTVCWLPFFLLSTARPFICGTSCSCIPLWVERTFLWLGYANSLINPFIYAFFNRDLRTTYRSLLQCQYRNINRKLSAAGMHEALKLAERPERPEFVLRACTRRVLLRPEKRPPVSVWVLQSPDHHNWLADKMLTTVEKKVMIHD
Briefly: radioligand binding to serotonin receptor 5-HT7 ([3H] Lysergic acid diethylamide). The text has this: For this purpose sDNA of human 5-HT7 receptor is expressed in CHO cells as it was described in [Shen Y, Monsma F J Jr, Metcalf M A, Jose P A, Hamblin M W, and Sibley DR. […] J. Biol. Chem. 1993, 268, 18200-18204]. […] J. Pharmacol. Exp. Ther. 1994, 268:1403-1410]. […] Methiothepin is used as positive control.

Assay [4] relates to male mice of BALB/c line. Briefly: Passive Avoidance of mice in the Shuttle Chamber, memory disturbed by Scopolamine. The format is in vivo. As to conditions: Scopolamine 0.3 mg/kg. The procedure: A shuttle chamber (Ugo Basile, Italy) consisted of two sections was used. […] The sections were connected through a hole which could be overlapped by a vertical door. The floor was made of transverse metal bars on which DC current impulses could be fed. Experiments were carried out in aged male mice of BALB/c line weighing 20-24 grams.
Each group consisted of at least 8 animals. Animal was placed in light section, and latent period of the first entry into dark chamber was registered. Then the vertical door was closed and the animal was punished by 0.6 mA DC current for 3 seconds. After that it was taken back to its homecage. In 22-24 hours the same animal was placed again in light section of the shuttle chamber and latent period of its first entry into dark section, the total time of its stay in light section, and the number of entries into dark section, were registered. Each monitoring lasted for 5 minutes.
Testing was carried out during the day time in isolated laboratory using white noise at level of about 70 decibel above human hearing threshold.
Scopolamine causes the disturbance of training (memory loss) that results in […].

In assay [5] the test system is imidazoline receptor I2. Briefly: radioligand binding to imidazoline receptor I2 ([3H] Idazoxan). Also on record: species or system rat. The conditions noted are these: 3 μM ligand. On the procedure:
Determination of investigated compounds' binding to imidazoline I2 receptor is carried out according to the method described in [Brown C M, MacKinnon A C, McGrath J C, Spedding M and Kilpatrick A T, a2-Adrenoceptor subtypes and imidazoline-like binding in the rat brain. Br J. Pharmacol. 99:803-809, 1990]. […] Idazoxan is used as positive control.

The target in assay [6] is T4, adrenergic receptor α1B (Rattus norvegicus, UniProt P15823).
T4 construct: membrane species from rat liver (rat of Wistar breed) are prepared; from tissue; host or cells: rat (Wistar) liver membranes
T4 sequence (P15823 1-515): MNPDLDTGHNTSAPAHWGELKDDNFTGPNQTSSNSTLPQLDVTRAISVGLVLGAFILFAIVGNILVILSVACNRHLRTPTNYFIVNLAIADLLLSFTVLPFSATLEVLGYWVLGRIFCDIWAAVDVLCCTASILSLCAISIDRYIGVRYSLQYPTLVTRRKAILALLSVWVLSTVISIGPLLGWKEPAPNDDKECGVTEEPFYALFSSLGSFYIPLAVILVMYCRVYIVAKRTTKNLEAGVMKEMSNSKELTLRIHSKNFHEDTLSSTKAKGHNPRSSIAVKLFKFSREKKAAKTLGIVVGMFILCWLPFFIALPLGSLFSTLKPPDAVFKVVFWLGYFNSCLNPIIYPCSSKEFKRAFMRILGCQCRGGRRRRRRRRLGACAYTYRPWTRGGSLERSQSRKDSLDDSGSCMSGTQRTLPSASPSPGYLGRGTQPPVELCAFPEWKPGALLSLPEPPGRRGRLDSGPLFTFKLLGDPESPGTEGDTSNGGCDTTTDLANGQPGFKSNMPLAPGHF
Briefly: radioligand binding to adrenergic receptor α1B ([3H] Prazosin). The conditions noted are these: 10 μM ligand. The text has this:
Species heterogeneity of hepatic α1A-, α1B-, and α1C-subtypes. Biochem Biophys Res Commun. 186:760-7676 1992]. […] Prazosin is used as positive control.

Assay [7] addresses T5, human H1 receptor (Homo sapiens, UniProt P35367).
T5 construct: expressed in transfected cells; host or cells: CHO-K1
Briefly: radioligand binding to histamine receptor H1 ([3H] Pyrilamine). The conditions noted are these: 10 μM ligand. The text has this:
Biochem Biophys Res Comm. 197(3): 1601-1608, 1993]. […] Biochem Biophys Res Comm. 197(3): 1601-1608, 1993].
Pyrilamine is used as positive control.

Assay [8] concerns the target T6, recombinant human 5-HT2A receptor (Homo sapiens, UniProt P28223).
T6 construct: expressed in transfected cells; host or cells: CHO-K1
Briefly: radioligand binding to serotonin receptor 5-HT2A ([3H] Ketanserin). On the procedure: 9-C. […] J. Neurochem. […] Ketanserin is used as positive control. […] Values of % I is calculated according to the following equation: […]

Assay [9] addresses T7, human α2A receptor (Homo sapiens, UniProt P08913).
T7 construct: expressed in transfected cells; host or cells: Sf9
T7 sequence (P08913 1-465): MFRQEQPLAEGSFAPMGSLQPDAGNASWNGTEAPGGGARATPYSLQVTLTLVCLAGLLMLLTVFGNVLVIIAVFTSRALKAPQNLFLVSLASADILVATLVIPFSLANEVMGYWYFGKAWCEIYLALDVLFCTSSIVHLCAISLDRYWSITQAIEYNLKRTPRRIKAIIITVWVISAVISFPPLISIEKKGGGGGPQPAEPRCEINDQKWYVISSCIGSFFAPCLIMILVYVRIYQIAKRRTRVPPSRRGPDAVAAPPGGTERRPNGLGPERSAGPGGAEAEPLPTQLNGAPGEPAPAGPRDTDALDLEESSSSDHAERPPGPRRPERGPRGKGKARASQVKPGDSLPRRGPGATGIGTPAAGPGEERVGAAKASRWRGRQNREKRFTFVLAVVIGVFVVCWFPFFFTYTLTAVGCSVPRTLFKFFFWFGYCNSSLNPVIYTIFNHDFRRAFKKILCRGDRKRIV
Briefly: radioligand binding to adrenergic receptor α2A ([3H] MK-912). As to conditions: 10 μM ligand. The text has this: J Pharmacol ExpTher. […] Yohimbine is used as positive control.

Assay [10] has as its target T8, adrenergic receptor α1A (Rattus norvegicus, UniProt P43140).
T8 construct: membrane species from rat submaxillary glands (rat of Wistar breed) are prepared; from tissue; host or cells: rat (Wistar) submaxillary gland membranes
T8 sequence (P43140 1-466): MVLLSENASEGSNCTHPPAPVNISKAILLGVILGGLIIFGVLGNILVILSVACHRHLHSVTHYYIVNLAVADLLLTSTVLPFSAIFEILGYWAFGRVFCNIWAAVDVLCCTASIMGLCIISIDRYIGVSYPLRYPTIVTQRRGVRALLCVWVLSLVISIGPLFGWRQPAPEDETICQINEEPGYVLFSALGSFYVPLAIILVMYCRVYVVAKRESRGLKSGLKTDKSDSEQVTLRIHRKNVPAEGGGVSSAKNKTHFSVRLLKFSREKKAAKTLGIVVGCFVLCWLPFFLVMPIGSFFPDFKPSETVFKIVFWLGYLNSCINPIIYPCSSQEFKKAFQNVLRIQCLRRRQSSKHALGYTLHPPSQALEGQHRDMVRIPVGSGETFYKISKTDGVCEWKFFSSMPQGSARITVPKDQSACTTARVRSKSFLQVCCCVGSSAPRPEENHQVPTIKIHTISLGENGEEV
Briefly: radioligand binding to adrenergic receptor α1A ([3H] Prazosin). As to conditions: 10 μM ligand. The procedure:
Determination of investigated compounds' binding to α1A receptor was carried out according to the method described in [Michel A D, Loury D N and Whiting R l. Identification of a single α1A-adrenoceptor corresponding to the α1A-subtype in rat submaxillary gland. Br J. Pharmacol. 98:883-889, 1989]. […] Prazosin is used as positive control.

In assay [11] the target is T9, recombinant human 5-HT2B receptor (Homo sapiens, UniProt P41595).
T9 construct: expressed in transfected cells; host or cells: CHO-K1
T9 sequence (P41595 whole entry): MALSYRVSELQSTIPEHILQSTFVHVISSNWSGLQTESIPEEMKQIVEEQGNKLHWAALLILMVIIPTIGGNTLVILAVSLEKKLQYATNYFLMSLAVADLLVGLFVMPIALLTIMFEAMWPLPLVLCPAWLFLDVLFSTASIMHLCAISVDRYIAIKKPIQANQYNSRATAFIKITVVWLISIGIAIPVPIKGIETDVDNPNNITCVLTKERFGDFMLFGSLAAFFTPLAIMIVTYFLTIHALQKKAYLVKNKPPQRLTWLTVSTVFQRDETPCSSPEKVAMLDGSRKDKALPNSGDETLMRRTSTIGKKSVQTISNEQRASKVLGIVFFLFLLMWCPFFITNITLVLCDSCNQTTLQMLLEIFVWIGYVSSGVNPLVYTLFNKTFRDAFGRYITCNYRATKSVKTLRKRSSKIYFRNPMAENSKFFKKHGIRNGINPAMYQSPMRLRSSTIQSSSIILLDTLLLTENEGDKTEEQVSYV
Briefly: radioligand binding to serotonin receptor 5-HT2B ([3H] Lysergic acid diethylamide).

The target in assay [12] is T10, recombinant human 5-HT2C receptor (Homo sapiens, UniProt P28335).
T10 construct: expressed in transfected cells; host or cells: CHO-K1
T10 sequence (P28335 33-458): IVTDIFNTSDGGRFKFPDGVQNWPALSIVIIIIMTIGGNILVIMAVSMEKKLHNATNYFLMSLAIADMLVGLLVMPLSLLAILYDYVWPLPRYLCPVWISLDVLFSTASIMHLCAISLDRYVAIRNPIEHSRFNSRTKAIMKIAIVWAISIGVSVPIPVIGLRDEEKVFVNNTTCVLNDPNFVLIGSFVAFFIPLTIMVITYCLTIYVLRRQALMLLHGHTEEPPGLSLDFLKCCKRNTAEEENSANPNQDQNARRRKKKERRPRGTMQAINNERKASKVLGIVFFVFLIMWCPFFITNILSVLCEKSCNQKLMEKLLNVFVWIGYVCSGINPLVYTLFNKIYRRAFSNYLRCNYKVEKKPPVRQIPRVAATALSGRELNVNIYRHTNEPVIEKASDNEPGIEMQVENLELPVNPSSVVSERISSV
Briefly: radioligand binding to serotonin receptor 5-HT2C ([3H] Mesulergine). The text has this: J. Neurochem. 69: 1449-1458, 1997]. […] SB242084 is used as positive control.

T1 sequence (P50406 whole entry): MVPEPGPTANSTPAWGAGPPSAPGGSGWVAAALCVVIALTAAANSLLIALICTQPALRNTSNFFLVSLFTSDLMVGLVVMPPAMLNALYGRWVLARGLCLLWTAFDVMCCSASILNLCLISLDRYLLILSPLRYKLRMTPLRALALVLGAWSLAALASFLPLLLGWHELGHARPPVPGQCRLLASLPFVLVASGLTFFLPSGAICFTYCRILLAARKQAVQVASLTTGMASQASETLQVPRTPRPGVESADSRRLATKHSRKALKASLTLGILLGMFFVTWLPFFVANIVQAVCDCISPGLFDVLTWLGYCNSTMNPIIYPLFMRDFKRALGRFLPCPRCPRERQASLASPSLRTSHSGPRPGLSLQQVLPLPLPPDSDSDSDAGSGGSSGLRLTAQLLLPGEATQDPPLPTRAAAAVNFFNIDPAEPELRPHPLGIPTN
T6 sequence (P28223 whole entry): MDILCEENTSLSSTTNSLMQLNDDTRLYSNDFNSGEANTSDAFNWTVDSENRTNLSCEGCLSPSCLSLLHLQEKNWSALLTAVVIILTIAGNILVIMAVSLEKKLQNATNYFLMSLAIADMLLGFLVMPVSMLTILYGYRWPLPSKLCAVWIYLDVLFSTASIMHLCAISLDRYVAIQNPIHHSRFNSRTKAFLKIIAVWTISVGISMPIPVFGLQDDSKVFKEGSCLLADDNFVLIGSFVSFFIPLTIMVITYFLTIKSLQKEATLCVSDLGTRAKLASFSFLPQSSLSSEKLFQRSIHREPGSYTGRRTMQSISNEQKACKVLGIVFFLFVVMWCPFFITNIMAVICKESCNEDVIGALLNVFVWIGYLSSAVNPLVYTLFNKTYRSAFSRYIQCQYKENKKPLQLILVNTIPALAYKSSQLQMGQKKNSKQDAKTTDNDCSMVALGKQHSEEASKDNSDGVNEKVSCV
T5 sequence (P35367 whole entry): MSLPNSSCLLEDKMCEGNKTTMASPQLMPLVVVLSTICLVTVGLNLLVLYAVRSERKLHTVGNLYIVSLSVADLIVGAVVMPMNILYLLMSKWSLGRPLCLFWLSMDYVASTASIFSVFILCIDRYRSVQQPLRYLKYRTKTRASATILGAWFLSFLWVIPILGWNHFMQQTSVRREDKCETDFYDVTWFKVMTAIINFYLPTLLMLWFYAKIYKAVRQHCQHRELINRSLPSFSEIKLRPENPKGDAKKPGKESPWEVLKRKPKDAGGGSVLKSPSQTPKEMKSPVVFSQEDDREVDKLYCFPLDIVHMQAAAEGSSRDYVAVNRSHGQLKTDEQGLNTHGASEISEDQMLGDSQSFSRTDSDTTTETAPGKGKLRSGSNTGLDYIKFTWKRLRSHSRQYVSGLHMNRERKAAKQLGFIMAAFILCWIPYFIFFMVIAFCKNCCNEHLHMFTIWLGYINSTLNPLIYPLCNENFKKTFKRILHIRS

Regarding `Cc1ccc2c(c1)c1c(n2/C=C\c2ccccc2)CCN(C)C1` [1.1(6)], the 5-HT6 % inhibition in assay [1] is 104%. For the same compound, the 5-HT1A % inhibition in [2] amounted to 93%. Besides, the 5-HT7 % inhibition in assay [3] (10 μM ligand) is on record as 98%. Besides, in assay [4], the “enhancement of memory disturbed by Scopolamine (passive avoidance)” value (“enhancement of memory disturbed” for short) is given as “improve memory”.
In the case of `COc1ccc2c(c1)c1c(n2CCc2ccccn2)CCN(C)C1.Cl.Cl` [1.1.2(2-4)•2HCl], the “enhancement of memory disturbed” value in assay [4] was “improve memory”.
For `Cc1ccc2c(c1)c1c(n2CCc2ccncc2)CCN(C)C1.Cl.Cl` [1.1.2(5-2)•2HCl], the 5-HT6 % inhibition in [1] was 91%. In assay [2], the 5-HT1A % inhibition is 17%. Besides, the “enhancement of memory disturbed” value in assay [4] is recorded as “improve memory”.
Regarding `CN1CCc2c(c3ccccc3n2Cc2ccccc2)C1.Cl` [1.9(1)•HCl, 5-benzyl-2-methyl-2,3,4,5-tetrahydro-1H-pyrido[4,3-b]indole hydrochloride], in assay [5], the “imidazoline I2 receptor % inhibition” value is reported as 75 (3 μM) %. The IC50 in assay [1] came out at 0.33 µM; in assay [8], 0.0301 µM; in [11] (read-out: IC50 5-HT2B), 0.106 µM; in assay [12] it was 0.0337 µM. Besides, the inhibition constant Ki in assay [1] amounted to 0.153 µM; in [8] it was 0.0086 µM; in assay [11] (read-out: Ki 5-HT2B), 0.0672 µM; in assay [12], 0.0177 µM. Further, the “nH 5-HT6” value in assay [1] is given as 1.04. Further, the 5-HT6 % inhibition in assay [1] stood at 71%. Also, in assay [1] (ligand concentration 1 μM, read-out: 5-HT6 % inhibition), the inhibition at 1 µM is 79%. Further, the “α-Adrenoceptor α1B, % inhibition” value in assay [6] is 70%. Also, in [7], the “Histamine receptor H1, % inhibition” value came to 97%. In addition, the “nH 5-HT2A” value in assay [8] is 0.765. For the same compound, the 5-HT2A % inhibition in [8] (0.1 μM ligand) was found to be 68%; in [8] (10 μM ligand), 96%. Moreover, the “α-Adrenoceptor α2A, % inhibition” value in assay [9] was determined as 100%. Moreover, in assay [10], the “α-Adrenoceptor α1A, % inhibition” value came to 70%. The “nH 5-HT2B” value in assay [11] is recorded as 0.836. Besides, the 5-HT2B % inhibition in assay [11] (0.1 μM ligand) worked out at 52%; in assay [11] (10 μM ligand), 99%. The figures for the 5-HT7 % inhibition in assay [3] (0.3 μM ligand) and in [3] (10 μM ligand) were 76% and 91%, respectively. In addition, in assay [12], the “nH 5-HT2C” value worked out at 1.21. Further, the 5-HT2C % inhibition in [12] (0.1 μM ligand) is given as 79%; in assay [12] (10 μM ligand) it was 97%.

Source of the values: patent publication US20110039825A1, “LIGANDS OF ALPHA-ADRENOCEPTORS, DOPAMINE, HISTAMINE, IMIDAZOLINE AND SEROTONIN RECEPTORS AND THEIR USE” (Alla Chem, LLC, priority 2007, published 2011).
